The nature of this series: osmotic coefficient (dimensionless); mn = molality of the nth substance listed, in mol/kg. To be noted: 298.15 K, 100 kPa, Liquid, isopiestic method.

Numbers after ± are expanded uncertainties.

For the compound `[Na+].[OH-]` [sodium hydroxide] + O, the osmotic coefficient was determined as 0.9589 ± 0.0089 (m1 = 1.004) and 1.032 ± 0.0089 (m1 = 2.01).

In the case of `[Cl-].[K+]` [potassium chloride] + O, the osmotic coefficient stood at 0.901 ± 0.011 (m1 = 0.9956) and 0.916 ± 0.011 (m1 = 2.002).

(Values after the NIST ThermoML archive (doi:10.1021/acs.jced.8b00400).)
